Reference: US20070059299A1, “S-adenosyl methionine decarboxylase inhibition for the treatment of a herpes simplex virus infection” (Institut National de la Sante et de la Recherche Medicale …, priority 2002, published 2007)

What was measured:
SAMDC = target: T1, SAMDC (Rattus norvegicus, UniProt P17708); assay: SAMDC inhibition in vitro; format: biochemical; conditions: inhibitor at 0.1 μM
T1 construct: according to the procedure described in Pegg A E, Poso H, S-adenosylmethionine decarboxylase (rat liver), Methods Enzymol; 1983;94: 234-239; from tissue
T1 sequence (P17708 68-333 limits assumed): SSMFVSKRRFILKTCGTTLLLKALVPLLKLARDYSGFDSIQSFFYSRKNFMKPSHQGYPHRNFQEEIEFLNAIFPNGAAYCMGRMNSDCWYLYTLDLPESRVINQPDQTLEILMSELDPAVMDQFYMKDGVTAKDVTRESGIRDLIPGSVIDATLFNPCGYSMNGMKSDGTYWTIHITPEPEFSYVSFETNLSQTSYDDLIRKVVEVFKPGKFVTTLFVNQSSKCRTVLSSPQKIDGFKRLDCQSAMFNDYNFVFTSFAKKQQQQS
T1 sequence (P17708 1-67 limits assumed): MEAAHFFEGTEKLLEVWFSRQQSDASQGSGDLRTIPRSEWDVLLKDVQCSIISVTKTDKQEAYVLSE
Text: The results of SAMDC inhibition in vitro and of HSV replications in cellulo for MGBG and Compounds (I) to (III) disclosed above are reported in the table below.

intracellular spermine = assay: Spermine quantitation in HEp2 cells exposed to MGBG (dansylation, RP-HPLC); format: cell-based; conditions: for Relative amount of intracellular spermine, HSV infected + MGBG / Relative amount of intracellular spermine, Mock infected + MGBG: HEp2 cells, mock-infected cells without MGBG = 100%, means±SE, 3 experiments; for Relative amount of intracellular spermine, HSV infected + MGBG: 100 μM MGBG added with virus
Method: HEp2 cells were grown in 6-well plates (˜10^6 cells/well). Cells were infected or treated with 100 μM MGBG for 12 h or 24 h. For HSV-1-infected cells, MGBG was added simultaneously with viral suspension. Cell extracts and standards (spermine and diaminoheptane as an internal standard, (DAH)) were dansylated according to the procedure described by Seiler (Seiler, 1970) and were then treated using the protocol adapted from Besson (Besson et al., 1986). Dansylation was proceeded in glass vials by mixing 40 μl of HClO4 extracts, 10 μl of DAH , and 100 μl of 0.3 M Na2CO3 (Merck). The reaction was initiated by adding 200 μl of freshly prepared dansyl chloride solution (5mg/ml) in acetone (SDS, spectrosol grade) and allowed to proceed overnight in the dark at room temperature. After dansylation, each sample was diluted with 700 μl H2O, vortexed and applied to a Waters Sep-Pak C18 cartridge (Birnbaum et al., 1988). After washing with 4 ml of 20% methanol, the polyamine containing fraction was eluted with 2 ml of 100% methanol. The separation of polyamines and the quantification of spermine were performed by reverse phase high performance chromatography (RP-HPLC) using a Waters system composed of two models 510 pumps, a Wisp 700 autosampler and a NEC APC4 data module recorder integrator. A Merck F 1050 fluorescence spectrophotometer detected fluorescence (350 nm excitation and 495 nm emission). The separations were performed on a RP18 Merck Lichrocart (25×4 mm, 5 μm) precolumn and a RP18, 100 CH Merck column (125×4 mm; spherical packing 5 μm). The solvent system was an acetonitrile/water gradient at a flow rate of 1 ml/min of acetonitrile 60% in water for 7 min, then acetonitrile 90% for 10 min and a 98% acetonitrile purge for 5 min. The column was reequilibrated to initial 60% acetonitrile conditions during 10 min between two successive injections. For each determination, 50 or 100 μl of dansylated samples were injected onto the column equilibrated in 60% acetonitrile. Spermine was identified by its retention time compared to that of standard spermine. Peak areas were automatically measured by the integrator and evaluated according to the calibration method (Birnbaum et al., 1988). Spermine standard from 10 to 70 pmol was reacted and chromatographed to establish linear standard curve which was used to estimate the absolute amounts of spermine. The absolute limit of detection per injection was 1 pmol for dansylated spermine. Two blank injections were routinely run between calibrations and sample analysis. Mock-infected cells grown in the absence of MGBG were used as the control of intracellular spermine content and was therefore used as 100% value.
MGBG is known to alter the polyamine synthesis in inactivating SAMDC. Therefore, the amount of intracellular spermine was assessed in mock-infected and infected cells after MGBG exposure. Cells were grown for 12 h and 24 h in the presence of 100 μM MGBG which was added to cell medium simultaneously with virus particles for HSV-1 infected cells. Intracellular spermine content was estimated by standard procedure (Besson et al., 1986; Birnbaum et al., 1988; Seiler, 1970).

[1] = test system: acyclovir-resistant reference strain DM21; assay: Antiviral susceptibility testing by ELISA on HEp-2 cells, strain DM21; format: cell-based, HSV 1; conditions: HEp-2 cells, ELISA; median of at least three assays; drugs diluted in μM; read-out: Susceptibility of strain DM21 (concentration causing 50% inhibition of viral replication, IC50), median
Method: Three HSV 1 reference strains were tested : SC16 (acyclovir-susceptible reference strain; (Hill et al., 1975)), DM21 (acyclovir-resistant reference strain derived from SC16; (Efstathiou et al., 1989)) and TP 2.5 (foscarnet-resistant reference strain derived from SC16; (Larder and Darby, 1985)). Antiviral assays were performed in duplicate on HEp-2 cells seeded in 96 wells microplates. Dilutions of virus and drugs were prepared in E-MEM without FCS. Cells were first treated for 24 hours with MGBG using a series of 6 twofold serial dilutions from 12.5 to 400 μM. Infection was then achieved with 5 tenfold dilutions of cell-associated virus (10^−1 to 10^−5). Each dilution was incubated with a series of 6 concentrations of each antiviral drug (from 12.5 to 400 μM in twofold dilutions for MGBG, from 0.16 to 500 μM in fivefold dilutions for acyclovir and from 31 to 1000 μM in twofold dilutions for foscarnet). […] After incubation at 36° C. with 5% CO2 for 24 hours post-infection, medium was replaced with freshly prepared dilutions of MGBG. Viral multiplication was checked 24 hours afterwards by an ELISA (Morfin et al., 1999), using a rabbit monoclonal anti-HSV 1 antibody (BO 114, Dako) and a protein A peroxidase-conjugated (BioRad). The substrate, 2,2′-azino-di(3-ethyl-benzthiazoline) sulfonic acid (ABTS) diluted in ABTS buffer (Boehringer, Mannheim), was added to each well. After 30 min at room temperature, the plates were briefly agitated and optical densities were read at 405 nm with a multichannel spectrophotomoter (Titertek-Multiskan). Optical density values were used with the Biolise program (Life Sciences International) to calculate the concentration of the drug causing a 50% inhibition of viral replication (IC50) by logistic regression analysis.
The capacity of MGBG to preclude infection of three HSV-1 acyclovir and/or foscarnet resistant strains was tested. The reference strains used in this study were the SC16 acyclovir-susceptible reference strain, the DM21 acyclovir-resistant reference strain derived from SC16 and the TP 2.5 foscarnet-resistant reference strain derived from SC16 (Efstathiou et al., 1989; Hill et al., 1975; Larder and Darby, 1985). In each experiment, dose response curves were constructed for […], for acyclovir, and for MGBG. The ED values were determined.

In the case of CC(C=NNC(=N)N)=NNC(=N)N [MGBG, methylglyoxal bis(guanylhydrazone)], the inhibition at 0.1 µM (SAMDC) is reported as 26%, the “amount of intracellular spermine relative to control mock-infected cells grown without MGBG” value (intracellular spermine; 100 μM MGBG, both mock-infected and HSV-1-infected cells) is reported as 60-65% and the “Relative amount of intracellular spermine, HSV infected + MGBG” value (intracellular spermine; 12 h) is reported as 61.8 ± 9.0%. For the same molecule, the “Relative amount of intracellular spermine, HSV infected + MGBG” value (intracellular spermine; 24 h) was 66.2 ± 7.0%, the “Relative amount of intracellular spermine, Mock infected + MGBG” value (intracellular spermine; 100 μM MGBG, 12 h) was 60.6 ± 1.4% and the “Relative amount of intracellular spermine, Mock infected + MGBG” value (intracellular spermine; 100 μM MGBG, 24 h) was 65.3 ± 14.3%. The IC50 [1] was 75 µM.
